Like-named read-outs stand apart in the source and are kept apart here.

The target in assay [1] is Pim-1 (Homo sapiens (Human), UniProt P11309). The experiment in a line: Pim enzyme assay (HTRF, phosphorylation of biotinylated-BAD (S112) peptide), Pim-1. Format: biochemical. Put shortly: (§1)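 Full-length human Pim-1 or Pim-2 with an N-terminal His6 tag, expressed in Sf9 or E. coli and purified as monomer. HTRF read-out: biotinylated BAD (S112) peptide phosphorylation detected with streptavidin-APC plus Eu-anti-phospho-BAD(S112) antibody, excitation 337 nm, emission 665 nm.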
In general terms: In TR-FRET formats the signal depends on donor and acceptor labels being close together.

For assay [2], the target named is Pim-2 (Homo sapiens (Human), UniProt Q9P1W9). The experiment in a line: Pim enzyme assay (HTRF, phosphorylation of biotinylated-BAD (S112) peptide), Pim-2. It counts as biochemical. The essentials:
as §1

Assay [3] deals with KMS-12-BM myeloma cell line. The experiment in a line: Pim cell assay: phospho-BAD (S112) and total BAD in KMS-12-BM cells. Format: cell-based. Conditions: 1 hour and 50 minutes incubation. The procedure: The KMS-12-BM myeloma cell line was used to determine the in vitro cellular inhibition of Pim kinases. Disruption of Pim signaling by Pim inhibitors was determined by measuring the levels of phospho-BAD (S112) and total BAD. […] The cells were then incubated overnight at 37° C., 5% CO2. […] In addition to the 10-point dosing curve of the test compound, DMSO alone was run as a control. This dilution in DMSO was then diluted again into cell growth medium. Aliquots (11.1 uL) of the compound diluted in growth medium were then transferred to the appropriate wells of the 96-well plates containing cells to yield a final DMSO concentration of 0.3%. The cell plates were then incubated with compound for 1 hour and 50 minutes at 37° C., 5% CO2. After the 1 hour and 50 min incubation, the cell plates were spun at 1000 RPM for 10 minutes and the compound-containing medium was removed. […] The cell plates containing lysis buffer were then immediately stored at −70° C. These prepared lysates were then assayed for phospho-(S112) and total-BAD according to the manufacturer's protocol (Meso Scale Diagnostics, Cat # K15103D-3). The plates were read on the MSD Sector Imager 6000, and results were calculated according to the assay protocol: ((% Phosphoprotein=((2×Phospho signal)/(Phospho signal+Total signal))×100)).

The mark [4] stands for this setting: full length recombinant Pim-1, biotinylated-BAD (S112) peptide, HTRF, 96-well, read-out: Pim-1 IC50 IP.
Setting [5] is: full length recombinant Pim-2, biotinylated-BAD (S112) peptide, HTRF, 96-well, read-out: Pim-2 IC50 IP.
[6] abbreviates: Homo sapiens, KMS-12-BM, read-out: KMS-12-BM IC50 IP.
Setting [7] is: full length recombinant Pim-1, biotinylated-BAD (S112) peptide, HTRF, read-out: Pim_1_IC50.
Where [8] appears, read: full length recombinant Pim-2, biotinylated-BAD (S112) peptide, HTRF, read-out: Pim2_IC50.
Setting [9] is: Homo sapiens, KMS-12-BM, read-out: KMS12_Cell_IC50.
Setting [10] is: tris(2,2,2-trifluoroacetate), read-out: KMS-12-BM IC50 IP.

Sequence of Pim-1 (P11309 whole entry): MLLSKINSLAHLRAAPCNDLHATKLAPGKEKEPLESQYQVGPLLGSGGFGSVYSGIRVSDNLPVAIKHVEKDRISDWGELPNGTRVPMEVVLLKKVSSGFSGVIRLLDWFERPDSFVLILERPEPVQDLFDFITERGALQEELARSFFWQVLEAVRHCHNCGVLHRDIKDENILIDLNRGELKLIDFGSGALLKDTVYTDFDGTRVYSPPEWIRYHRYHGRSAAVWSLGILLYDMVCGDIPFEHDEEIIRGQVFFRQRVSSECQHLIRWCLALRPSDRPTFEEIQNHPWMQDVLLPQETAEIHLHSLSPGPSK
Sequence of Pim-2 (Q9P1W9 whole entry): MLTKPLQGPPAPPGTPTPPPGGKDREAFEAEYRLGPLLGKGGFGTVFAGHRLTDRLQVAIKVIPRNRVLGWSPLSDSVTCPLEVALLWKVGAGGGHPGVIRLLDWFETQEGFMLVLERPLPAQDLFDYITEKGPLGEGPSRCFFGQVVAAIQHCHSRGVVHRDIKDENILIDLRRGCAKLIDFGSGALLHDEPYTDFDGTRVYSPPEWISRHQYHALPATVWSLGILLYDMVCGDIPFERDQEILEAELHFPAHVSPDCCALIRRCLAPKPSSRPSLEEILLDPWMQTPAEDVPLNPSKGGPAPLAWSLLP

For the molecule `N[C@H]1C[C@H](C(F)(F)F)CN(c2ccncc2Nc2ncc3ccc(-c4c(F)cccc4F)nn23)C1` (racemic) [Example 61, rac-N-(4-((trans)-3-amino-5-(trifluoromethyl)piperidin-1-yl)pyridin-3-yl)-2-(2,6-difluorophenyl)imidazo[1,5-b]pyridazin-7-amine bis(2,2,2-trifluoroacetate)], the IC50 in assay [1] (setting [4]) is 0.4 nM; in assay [2] (setting [5]), 1.4 nM; in assay [3] (setting [6]), 1630 nM.
`C[C@H]1CN(c2ccncc2Nc2ncc3ccc(-c4c(F)cccc4F)nn23)C[C@@H](N)[C@@H]1O` [Example 20, (3R,4R,5S)-3-amino-1-(3-((2-(2,6-difluorophenyl)imidazo[1,5-b]pyridazin-7-yl)amino)-4-pyridinyl)-5-methyl-4-piperidinol]: the IC50 in assay [1] (setting [7]) turned out to be 0.04 nM; in assay [2] (setting [8]), 0.08 nM; in assay [3] (setting [9]) it was 40 nM.
In the case of `Clc1ccccc1-c1ccc2cnc(Nc3cnccc3O[C@H]3CCCNC3)n2n1` [Example 16, 2-(2-chlorophenyl)-N-(4-((3S)-3-piperidinyloxy)-3-pyridinyl)imidazo[1,5-b]pyridazin-7-amine bis(2,2,2-trifluoroacetate)], the results for the IC50 in assay [1] (setting [7]), in assay [2] (setting [8]) and in assay [3] (setting [9]) were 44 nM, 298 nM and > 1000 nM, respectively.
Take `N[C@H]1CCCN(c2ccncc2Nc2ncc3ccc(-c4cc(C(=O)NC5CC5)ccc4F)nn23)C1` [Example 74, 3-(7-((4-((3S)-3-amino-1-piperidinyl)-3-pyridinyl)amino)imidazo[1,5-b]pyridazin-2-yl)-N-cyclopropyl-4-fluorobenzamide]: the IC50 turned out to be 0.2 nM in assay [1] (setting [4]), 0.5 nM in assay [2] (setting [5]) and 185 nM in assay [3] (setting [6]).
The matching figures for `C[C@@H]1CN(c2ccncc2Nc2ncc3ccc(-c4c(F)cccc4F)nn23)C[C@@H](N)[C@H]1O` [Example 41, (3R,4S,5R)-3-amino-1-(3-((2-(2,6-difluorophenyl)imidazo[1,5-b]pyridazin-7-yl)amino)-4-pyridinyl)-5-methyl-4-piperidinol]: 0.1 nM, 0.5 nM and 148 nM.
As for `N[C@H]1CCCN(c2ccccc2Nc2ncc3ccc(-c4c(F)cccc4F)nn23)C1` [Example 73, (S)-N-(2-(3-aminopiperidin-1-yl)phenyl)-2-(2,6-difluorophenyl)imidazo[1,5-b]pyridazin-7-amine], the figures for the IC50 in assay [1] (setting [4]), in assay [2] (setting [5]) and in assay [3] (setting [6]) were 2.2 nM, 6.5 nM and 3440 nM, respectively.
As to `C[C@@H]1C[C@H](N)CN(c2ccncc2Nc2ncc3ccc(-c4ccccc4F)nn23)C1` (single isomer, unassigned) [Example 47, N-(4-((cis)-3-amino-5-methylpiperidin-1-yl)pyridin-3-yl)-2-(2-fluorophenyl)imidazo[1,5-b]pyridazin-7-amine tris(2,2,2-trifluoroacetate)], the IC50 in assay [1] (setting [4]) is 7.7 nM; in assay [2] (setting [5]) it was 54.2 nM; in assay [3] (setting [10]), 10200 nM.
Consider `C[C@@H]1C[C@H](N)CN(c2ccncc2Nc2nnc3ccc(-c4ncccc4F)nn23)C1` [Example 92, N-(4-((3S,5R)-3-amino-5-methyl-1-piperidinyl)-3-pyridinyl)-6-(3-fluoro-2-pyridinyl)[1,2,4]triazolo[4,3-b]pyridazin-3-amine], for which the IC50 in assay [1] (setting [4]) worked out at 1.6 nM; in assay [2] (setting [5]) it was 10.6 nM; in assay [3] (setting [6]) it was 2200 nM.
As to `C[C@@H]1C[C@H](N)CN(c2ccncc2Nc2ncc3ccc(-c4cc(C(=O)NC5CC5)ccc4F)nn23)C1` [Example 72, 3-(7-((4-((3S,5R)-3-amino-5-methyl-1-piperidinyl)-3-pyridinyl)amino)imidazo[1,5-b]pyridazin-2-yl)-N-cyclopropyl-4-fluorobenzamide], the IC50 in assay [1] (setting [4]) is 0.1 nM; in assay [2] (setting [5]) it was 0.1 nM; in assay [3] (setting [6]) it was 86.4 nM.
For the molecule `C[C@@H]1C[C@H](N)CN(c2ccncc2Nc2nnc3ccc(-c4c(F)cccc4F)nn23)C1` [Example 90, N-(4-((3S,5R)-3-amino-5-methylpiperidin-1-yl)pyridin-3-yl)-6-(2,6-difluorophenyl)-[1,2,4]triazolo[4,3-b]pyridazin-3-amine bis(2,2,2-trifluoroacetate)], the results for the IC50 in assay [1] (setting [4]), in assay [2] (read-out: Pim-2 IC50 IP) and in assay [3] (setting [6]) were 1 nM, 3.9 nM and 509 nM, respectively.
Turning to `N[C@H]1CCCN(c2ccncc2Nc2ncc3ccc(-c4ccccc4F)nn23)C1` [Example 15, N-(4-((3S)-3-amino-1-piperidinyl)-3-pyridinyl)-2-(2-fluorophenyl)imidazo[1,5-b]pyridazin-7-amine bis(2,2,2-trifluoroacetate)], the IC50 in assay [1] (read-out: Pim_1_IC50) stood at 0.2 nM; in assay [2] (setting [8]), 2 nM; in assay [3] (setting [9]), 1540 nM.
With `C[C@@H]1CCN(c2ccncc2Nc2ncc3ccc(-c4c(F)cccc4F)nn23)C[C@H]1N` (single isomer, unassigned) [Example 100, N-(4-((trans)-3-amino-4-methylpiperidin-1-yl)pyridin-3-yl)-2-(2,6-difluorophenyl)imidazo[1,5-b]pyridazin-7-amine tris(2,2,2-trifluoroacetate)], the IC50 in assay [1] (read-out: Pim-1 IC50 IP) is < 0.1 nM; in assay [2] (read-out: Pim-2 IC50 IP), 0.2 nM; in assay [3] (setting [10]), 77.5 nM.
As for `C[C@H]1CN(c2ccncc2Nc2ncc3ccc(-c4nccs4)nn23)C[C@@H](N)[C@@H]1O` [Example 21, (3R,4R,5S)-3-amino-5-methyl-1-(3-((2-(1,3-thiazol-2-yl)imidazo[1,5-b]pyridazin-7-yl)amino)-4-pyridinyl)-4-piperidinol], the IC50 in assay [1] (setting [7]) is 0.3 nM; in assay [2] (setting [8]), 0.6 nM; in assay [3] (setting [9]), 209 nM.
The matching figures for `N[C@H]1CCCN(c2ccncc2Nc2ncc3ccc(-c4ccccc4Cl)nn23)C1` [Example 4, N-(4-((3S)-3-amino-1-piperidinyl)-3-pyridinyl)-2-(2-chlorophenyl)imidazo[1,5-b]pyridazin-7-amine]: 0.9 nM, 3 nM and 2670 nM.
`C[C@@H]1CCN(c2ccncc2Nc2ncc3ccc(-c4c(F)cccc4F)nn23)C[C@H]1N` (single isomer, unassigned) [Example 101, N-(4-((trans)-3-amino-4-methylpiperidin-1-yl)pyridin-3-yl)-2-(2,6-difluorophenyl)imidazo[1,5-b]pyridazin-7-amine tris(2,2,2-trifluoroacetate)]: the IC50 in assay [1] (setting [4]) came out at 7.6 nM; in assay [2] (setting [5]), 32.4 nM; in assay [3] (setting [10]), 6930 nM.
In the case of `C[C@H]1CN(c2ccncc2Nc2ncc3ccc(-c4ncccc4F)nn23)C[C@@H](N)[C@@H]1O` [Example 66, (3R,4R,5S)-3-amino-1-(3-((2-(3-fluoropyridin-2-yl)imidazo[1,5-b]pyridazin-7-yl)amino)pyridin-4-yl)-5-methylpiperidin-4-ol], the IC50 in assay [1] (setting [4]) is 0.3 nM; in assay [2] (setting [5]), 1.3 nM; in assay [3] (setting [6]), 115 nM.
As to `Nc1cc(-c2ccncc2Nc2ncc3ccc(-c4c(F)cccc4F)nn23)ccn1` [Example 30, N3′-(2-(2,6-difluorophenyl)imidazo[1,5-b]pyridazin-7-yl)-4,4′-bipyridine-2,3′-diamine], the IC50 in assay [1] (setting [7]) came out at 7 nM; in assay [2] (setting [8]) it was 185 nM; in assay [3] (setting [9]), 21500 nM.
The corresponding values for `Fc1cccc(F)c1-c1ccc2cnc(Nc3cnccc3OC3CNC3)n2n1` [Example 9, N-(4-(3-azetidinyloxy)-3-pyridinyl)-2-(2,6-difluorophenyl)imidazo[1,5-b]pyridazin-7-amine] are 14 nM, 99 nM and 10300 nM.
With `Cc1cc(N)cc(-c2ccncc2Nc2ncc3ccc(-c4c(F)cccc4F)nn23)c1` [Example 42, N-(4-(3-amino-5-methylphenyl)-3-pyridinyl)-2-(2,6-difluorophenyl)imidazo[1,5-b]pyridazin-7-amine], the IC50 in assay [1] (setting [4]) worked out at 8.6 nM; in assay [2] (setting [5]) it was 34.4 nM; in assay [3] (setting [6]), 9860 nM.
The matching figures for `N[C@H]1CCCN(c2ncncc2Nc2ncc3ccc(-c4c(F)cccc4F)nn23)C1` [Example 36, (S)-N-(4-((3S)-3-amino-1-piperidinyl)-5-pyrimidinyl)-2-(2,6-difluorophenyl)imidazo[1,5-b]pyridazin-7-amine]: 19.2 nM, 110 nM and > 31600 nM.

Values taken from patent US9187486B2 (AMGEN INC., priority 2011, dated 2015).
